Data as given in patent US20250313533A1, “QUINOLINE CARBOXYLIC ACID ESTER COMPOUND AND PREPARATION METHOD AND USE THEREOF” (priority 2019, published 2025).

How the values were obtained:
[1] = test system: pathogenic bacteria causing fruit blotch in watermelons; experiment: In vitro bactericidal activity, fruit blotch in watermelons; format: cell-based, acidovorax; conditions: read-out: inhibitory rate; for inhibition at 1 ppm: dosage 1 ppm; for inhibition at 5 ppm: dosage 5 ppm
[2] = test system: bacterial wilt in tobacco; experiment: whole plant or invertebrate; conditions: Nicotiana tabacum, read-out: efficacy against bacterial wilt in tobacco
[3] = test system: pathogenic bacteria causing bacterial blight in rice; experiment: whole plant or invertebrate; format: cell-based, xanthomonas; conditions: read-out: inhibitory rate
[4] = test system: soft rot in Chinese cabbages; experiment: whole plant or invertebrate; conditions: 48 h, read-out: efficacy against soft rot in Chinese cabbages
bacterial blight in rice = experiment: whole plant or invertebrate; conditions: Oryza sativa, read-out: efficacy against bacterial blight in rice
[5] = test system: pathogenic bacteria causing black rot in Chinese cabbages; experiment: In vitro bactericidal activity, black rot in Chinese cabbages; format: cell-based, xanthomonas; conditions: Xanthomonas, read-out: inhibitory rate; for inhibition at 1 ppm: dosage 1 ppm; for inhibition at 5 ppm: dosage 5 ppm
[6] = test system: soft rot in Chinese cabbages; experiment: Field test for controlling soft rot in Chinese cabbages; format: in vivo, Chinese cabbage; conditions: 7 days after the last application
Description: (§1) In October 2019, tests were carried out in fields of Chinese cabbage, wild cabbage and lettuce in Tai'an, Shandong. The doses of the compounds 152 and 282 of the present disclosure (both prepared as dispersible granules with a mass fraction of 10%) used were 16.87 ga.i./hm^2 and 33.75 ga.i./hm^2, and the control agents used were 3% (by weight) wettable powder of zhongshengmycin and 33.5% (by weight) aqueous suspension of oxine-copper (both were commercially available). The dose of zhongshengmycin was 67.5 ga.i./hm^2, and the dose of oxine-copper was 337.5 ga.i./hm^2. Test and control agents were arranged in randomized blocks. Plot area was 15 m^2. Treatment was repeated 3 times. The route of application was spraying on stem and leaves. The application was performed 2 times in total at an interval of 7 days, and the efficacy investigation was performed 7 days after the last application. During the investigation, sampling was carried out at 5 points in each plot. Disease conditions of soft rot in Chinese cabbages, soft rot in lettuces and soft rot in wild cabbages were recorded according to the relevant technical standard of Pesticide Guidelines for the Field Efficacy Trials GB/T17980.114-2004, and the incidence rate of plants was calculated to further evaluate the control effect.

[7] = test system: indoor potted cucumber seedlings; experiment: Effect of improving growth and development of crops; format: in vivo; design: Rate of growth rate increase (%): concentration or dose not given beside the values; conditions: versus blank control; for Rate of chlorophyll content increase (%) / Rate of leaf area increase (%): 14 days after application; for Rate of growth rate increase (%): plant height 14 days after application; for Rate of leaf area increase (%): second leaf
Procedure, shortened: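 Plant height and second-leaf length/width were measured before application and 14 days after; growth rate and its percent increase, leaf area and leaf-area increase were calculated from these. Chlorophyll was read with a SPAD chlorophyll meter and its increase rate derived.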

[8] = test system: pathogenic bacteria causing bacterial angular leaf spot in cucumbers; experiment: In vitro bactericidal activity, bacterial angular leaf spot in cucumbers; format: cell-based, pseudomonas; conditions: read-out: inhibitory rate; for inhibition at 1 ppm: dosage 1 ppm; for inhibition at 5 ppm: dosage 5 ppm
black shank in potatoes = experiment: Living crops in vivo protective activity, potatoes (root irrigation); conditions: Solanum tuberosum, read-out: efficacy against black shank in potatoes; for pest or weed control at 5 ppm: dosage 5 ppm; for pest or weed control at 10 ppm: dosage 10 ppm
Description: Root irrigation was carried out on the potatoes for tests according to the designed concentration of the agents. The dosage for each plant was 200 mL and was kept consistent (also for the control). The black shank bacteria were inoculated on the second day after the application. The results were investigated according to the disease condition.

[9] = test system: pathogenic bacteria causing bacterial wilt in cassava; experiment: organism not typed; format: cell-based; conditions: read-out: inhibitory rate
[10] = test system: soft rot in wild cabbages; experiment: Field test for controlling soft rot in wild cabbages; format: in vivo, wild cabbage; conditions: 7 days after the last application
Description: as §1

cucumber seedlings = experiment: Safety for plant growth after application; format: in vivo; conditions: dosage 200 ppm
Procedure, shortened: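 Safety to the crop is assessed on cucumber seedlings in indoor pots by tracking how treatment alters leaf area, chlorophyll level and height growth rate.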

[11] = test system: pathogenic bacteria causing stem rot in sweet potatoes; experiment: In vitro bactericidal activity, stem rot in sweet potatoes; format: cell-based, dikia; conditions: read-out: inhibitory rate; for inhibition at 1 ppm: dosage 1 ppm; for inhibition at 5 ppm: dosage 5 ppm
[12] = test system: stem rot in sweet potatoes; experiment: whole plant or invertebrate; conditions: read-out: efficacy against stem rot in sweet potatoes
[13] = test system: pathogenic bacteria causing bacterial wilt in tobacco; experiment: whole plant or invertebrate; format: cell-based, ralstonia; conditions: read-out: inhibitory rate
soft rot in lettuces = experiment: Field test for controlling soft rot in lettuces; format: in vivo, lettuce; conditions: 7 days after the last application
Description: as §1

[14] = test system: pathogenic bacteria causing black shank in potatoes; experiment: In vitro bactericidal activity, black shank in potatoes; format: cell-based; conditions: read-out: inhibitory rate; for inhibition at 1 ppm: dosage 1 ppm; for inhibition at 5 ppm: dosage 5 ppm
[15] = test system: fruit blotch in watermelons; experiment: whole plant or invertebrate; conditions: read-out: efficacy against fruit blotch in watermelons
[16] = test system: pathogenic bacteria causing fire blight in pears; experiment: In vitro bactericidal activity, fire blight in pears; format: cell-based, erwinia; conditions: Erwinia, read-out: inhibitory rate; for inhibition at 1 ppm: dosage 1 ppm; for inhibition at 5 ppm: dosage 5 ppm
[17] = dose 16.87 g a.i./hm^2, 2 sprays
[18] = dose 33.75 g a.i./hm^2, 2 sprays

Compound	inhibition at 1 ppm [1] [%]	inhibition at 5 ppm [1] [%]	pest or weed control at 5 ppm [2] [%]	pest or weed control at 10 ppm [2] [%]	inhibition at 1 ppm [3] [%]	inhibition at 5 ppm [3] [%]	pest or weed control at 5 ppm [4] [%]	pest or weed control at 10 ppm [4] [%]	pest or weed control at 5 ppm (bacterial blight in rice) [%]	pest or weed control at 10 ppm (bacterial blight in rice) [%]	inhibition at 1 ppm [5] [%]	inhibition at 5 ppm [5] [%]	Rate of chlorophyll content increase (%) [7] [%]	Rate of growth rate increase (%) [7] [%]	Rate of leaf area increase (%) [7] [%]	inhibition at 1 ppm [8] [%]	inhibition at 5 ppm [8] [%]	pest or weed control at 5 ppm (black shank in potatoes) [%]	pest or weed control at 10 ppm (black shank in potatoes) [%]	inhibition at 1 ppm [9] [%]	other results
COCCOC(=O)c1cn(C2CC2)c2cc(Cl)c(F)cc2c1=O [Compound 152, 2-methoxyethyl 7-chloro-1-cyclopropyl-6-fluoro-4-oxo-1,4-dihydroquinoline-3-carboxylate]	≥ 90	≥ 90	≥ 90	≥ 90	≥ 90	≥ 90	≥ 90	≥ 90	≥ 90	≥ 90	≥ 90	≥ 90	17	15	16	≥ 90	≥ 90	≥ 90	≥ 90	≥ 90	Control effect (%) [6, 17]: 86%; Control effect (%) [6, 18]: 96%; inhibition at 5 ppm [9]: ≥ 90%; Control effect (%) [10, 17]: 82%; Control effect (%) [10, 18]: 93%; safety for plant growth (discoloration, necrosis, wilt, malformation) (cucumber seedlings): safe for plant growth; inhibition at 1 ppm [11]: ≥ 90%; inhibition at 5 ppm [11]: ≥ 90%; pest or weed control at 5 ppm [12]: ≥ 90%; pest or weed control at 10 ppm [12]: ≥ 90%; inhibition at 1 ppm [13]: ≥ 90%; inhibition at 5 ppm [13]: ≥ 90%; Control effect (%) (soft rot in lettuces; [17]): 79%; Control effect (%) (soft rot in lettuces; [18]): 90%; inhibition at 1 ppm [14]: ≥ 90%; inhibition at 5 ppm [14]: ≥ 90%; pest or weed control at 5 ppm [15]: ≥ 90%; pest or weed control at 10 ppm [15]: ≥ 90%; inhibition at 1 ppm [16]: ≥ 90%; inhibition at 5 ppm [16]: ≥ 90%
COCCOC(=O)c1cn(C2CC2)c2cc(N3CCCCC3)c(F)cc2c1=O [Compound 432]	≥ 90	≥ 90	≥ 90	≥ 90	≥ 90	≥ 90	≥ 90	≥ 90	≥ 90	≥ 90	≥ 90	≥ 90	16	12	16	≥ 90	≥ 90	≥ 90	≥ 90	≥ 90	inhibition at 5 ppm [9]: ≥ 90%; safety for plant growth (discoloration, necrosis, wilt, malformation) (cucumber seedlings): safe for plant growth; inhibition at 1 ppm [11]: ≥ 90%; inhibition at 5 ppm [11]: ≥ 90%; pest or weed control at 5 ppm [12]: ≥ 90%; pest or weed control at 10 ppm [12]: ≥ 90%; inhibition at 1 ppm [13]: ≥ 90%; inhibition at 5 ppm [13]: ≥ 90%; inhibition at 1 ppm [14]: ≥ 90%; inhibition at 5 ppm [14]: ≥ 90%; pest or weed control at 5 ppm [15]: ≥ 90%; pest or weed control at 10 ppm [15]: ≥ 90%; inhibition at 1 ppm [16]: ≥ 90%; inhibition at 5 ppm [16]: ≥ 90%
